The test system of one assay is P815. In words: Cytotoxicity against mouse P815 cells assessed as concentration required to produce 50% arrest of mitotic activity. It counts as functional.
The subject of assay [1] is TA3. The assay is described as follows: Cytotoxicity against mouse TA3 cells assessed as concentration required to produce 50% decrease in protein production. The assay is classed as functional.
Assay [2] is filed under the species Gallus gallus. The assay is described as follows: Competitive binding affinity to tubulin in chick embryo brain by radioactive colchicine displacement assay. The assay is classed as tissue-based.
In another assay the test system is L5178Y. In words: Cytotoxicity against mouse L5178Y cells assessed as concentration required to produce 50% inhibition of cell count in suspension of growing cells. It counts as functional.
Assay [3] is filed under the species Gallus gallus. The assay is described as follows: Inhibition of tubulin in chick brain assessed as concentration required to inhibit microtubule formation by 50%.
The species named for assay [4] is Gallus gallus. In words: Inhibition of tubulin in chick brain assessed as concentration required to inhibit microtubule formation by 50% relative to podophyllotoxin. To be noted: concentration not given here.
The species named for assay [5] is Gallus gallus. In words: Competitive binding affinity to tubulin in chick embryo brain by radioactive colchicine displacement assay relative to podophyllotoxin.
The test system of a further assay is TLX-5. In words: Anticancer activity against mouse TLX5 cells allografted in mouse. The assay is classed as functional, cell-based.
A further assay relates to L1210. The assay is described as follows: Anticancer activity against mouse L1210 cells allografted in mouse. The assay is classed as functional, cell-based.
The test system of assay [6] is TA3. The assay is described as follows: Anticancer activity against mouse TA3 cells allografted in mouse. The assay is classed as functional, cell-based.
Assay [7] is described as follows: In vivo inhibition of microtubule assembly in Stentor coeruleus assessed as minimum concentration required to delay regeneration of ciliated oral apparatus by […] analysis. It counts as functional.
Assay [8] can be described thus: In vivo inhibition of microtubule assembly in Stentor coeruleus assessed as minimum concentration required to delay regeneration of ciliated oral apparatus by […] analysis relative to podophyllotoxin. It counts as functional.
For the next assay, the system named is Caelifera. In words: Competitive binding affinity to tubulin in grasshopper embryo by radioactive colchicine displacement assay.

Here are results for twelve compounds from ChEMBL document CHEMBL3244094, “Nonenolizable podophyllotoxin derivatives” (1977).

Molecules are shown by their SMILES. Activity calls are given as the source filed them. The calls are words filed in the database; no cut-off is given here. Some results are limits rather than exact numbers.

As to `COc1cc([C@H]2c3cc4c(cc3C[C@H]3CCC[C@@H]32)OCO4)cc(OC)c1OC`, the Activity stood at 6.5 ×10⁻⁷ M in the assay on P815, 50 ×10⁻⁷ M in the assay on TA3 [1], 16 ×10⁻⁷ M in the assay with L5178Y and 50 ×10⁻⁷ M in the assay listed under Gallus gallus [3]. Also, in the assay filed under Gallus gallus [2], the KA was determined as 0.02 ×10⁶ L/mol.
Regarding `COc1cc([C@H]2c3cc4c(cc3C[C@H]3CC(=O)C[C@@H]32)OCO4)cc(OC)c1OC`, the Activity in the assay with P815 amounted to 1 ×10⁻⁷ M; in the assay with TA3 [1] it was 15 ×10⁻⁷ M; in the assay with L5178Y, 15 ×10⁻⁷ M; in the assay listed under Gallus gallus [3], 50 ×10⁻⁷ M. In addition, in the assay filed under Gallus gallus [2], the KA worked out at 0.02 ×10⁶ L/mol.
In the case of `COc1cc([C@H]2c3cc4c(cc3[C@@H](O)[C@H]3CSC[C@H]23)OCO4)cc(OC)c1OC`, the Activity came to 4.3 ×10⁻⁷ M with P815, 60 ×10⁻⁷ M in the assay with TA3 [1], 14 ×10⁻⁷ M in the assay on L5178Y and 100 ×10⁻⁷ M in the assay filed under Gallus gallus [3]. Besides, in the assay filed under Gallus gallus [2], the outcome was Active.
Regarding `COc1cc([C@H]2c3cc4c(cc3C[C@H]3COC(=O)[C@@H]32)OCO4)cc(OC)c1OC`, the Activity in the assay with P815 came to 0.05 ×10⁻⁷ M. Also, the KA in the assay listed under Gallus gallus [2] amounted to 2 ×10⁶ L/mol.
In general, inhibition refers to the change of the read-out against control, counted positive when it falls. Regarding `COc1cc([C@H]2c3cc4c(cc3C[C@H]3COC[C@@H]32)OCO4)cc(OC)c1OC`, the inhibition in the assay filed under Gallus gallus [4] was 75%. In addition, the Activity was found to be 20% in the assay listed under Gallus gallus [5]; 0.52 ×10⁻⁷ M in the assay on P815; 6 ×10⁻⁷ M in the assay with TA3 [1]; 1.4 ×10⁻⁷ M in the assay with L5178Y; 8 ×10⁻⁷ M in the assay filed under Gallus gallus [3]. The result with TLX-5, with L1210 and in the assay on TA3 [6] was inactive. Besides, the KA in the assay filed under Gallus gallus [2] was 0.4 ×10⁶ L/mol.
With `COc1cc([C@H]2c3cc4c(cc3[C@@H](O)[C@H]3CS(=O)(=O)C[C@H]23)OCO4)cc(OC)c1OC`, the Activity with P815 is greater than 220 ×10⁻⁷ M; with TA3 [1] it was greater than 100 ×10⁻⁷ M; with L5178Y it was greater than 220 ×10⁻⁷ M; in the assay listed under Gallus gallus [3], greater than 1000 ×10⁻⁷ M. For the same compound, the result in the assay filed under Gallus gallus [2] was Active.
Regarding `COc1cc([C@H]2c3cc4c(cc3[C@@H](O)[C@H]3COC[C@H]23)OCO4)cc(OC)c1OC`, the inhibition in the assay listed under Gallus gallus [4] amounted to 60%. Also, the Activity is 13% in the assay listed under Gallus gallus [5]; 0.59 ×10⁻⁷ M with P815; 6 ×10⁻⁷ M in the assay on TA3 [1]; 1.3 ×10⁻⁷ M in the assay on L5178Y; 10 ×10⁻⁷ M in the assay listed under Gallus gallus [3]. The result in the assay on TLX-5, with L1210 and in the assay with TA3 [6] was inactive. In addition, the MEC in assay [7] came out at 20 µM. Moreover, the “inhibition (INH)” value in assay [8] was determined as 20%. Moreover, in the assay filed under Gallus gallus [2], the KA was determined as 0.2 ×10⁶ L/mol.
As to `COc1cc([C@H]2c3cc4c(cc3[C@@H](O)[C@H]3COC(=O)[C@H]23)OCO4)cc(OC)c1OC`, the outcome in the assay with TLX-5, in the assay with L1210 and in the assay on TA3 [6] was inactive. The Activity worked out at 0.12 ×10⁻⁷ M with P815, 3 ×10⁻⁷ M in the assay on TA3 [1], 0.14 ×10⁻⁷ M in the assay on L5178Y and 6 ×10⁻⁷ M in the assay filed under Gallus gallus [3]. The MEC in assay [7] is 4 µM. In the assay filed under Gallus gallus [2], the KA came out at 2 ×10⁶ L/mol.
As for `COc1cc([C@H]2c3cc4c(cc3C[C@H]3CSC[C@@H]32)OCO4)cc(OC)c1OC`, the Activity in the assay with P815 amounted to 6 ×10⁻⁷ M; in the assay on TA3 [1], 50 ×10⁻⁷ M; in the assay with L5178Y, 15 ×10⁻⁷ M; in the assay listed under Gallus gallus [3] it was 100 ×10⁻⁷ M. For the same compound, in the assay filed under Gallus gallus [2], the outcome was Active.
Take `COc1cc([C@H]2c3cc4c(cc3[C@@H](O)[C@H]3COC(=O)[C@@H]23)OCO4)cc(OC)c1OC`: in the assay on P815, the Activity came to 1.9 ×10⁻⁷ M. Besides, the KA with Caelifera is 0.037 ×10⁶ L/mol.
Regarding `COc1cc([C@H]2c3cc4c(cc3C[C@H]3COC(=O)[C@H]32)OCO4)cc(OC)c1OC` [ISOPICRODEOXYPODOPHYLLOTOXIN], the Activity in the assay with P815 was determined as 1.3 ×10⁻⁷ M.
`COc1cc([C@H]2c3cc4c(cc3C[C@H]3CS(=O)(=O)C[C@@H]32)OCO4)cc(OC)c1OC`: the Activity in the assay with P815 is 69 ×10⁻⁷ M; with TA3 [1], greater than 100 ×10⁻⁷ M; with L5178Y, 139 ×10⁻⁷ M; in the assay filed under Gallus gallus [3], greater than 500 ×10⁻⁷ M. Also, in the assay filed under Gallus gallus [2], the outcome was Active.
